The values that follow are results of earlier work, collected in the CATMoS acute toxicity set (Mansouri et al. 2021).

Where “and” joins values, the source holds several entries; their conditions need not be identical. Equal entries are not always repeated.

The data set can be described thus: rat acute oral toxicity. To be noted: in vivo. The source says:
[…]The data set underlying the modeling effort for this project was initially compiled by NICEATM and U.S. EPA’s CCTE. Briefly, LD50 data were collected from rat acute oral systemic toxicity tests, including limit tests, ranges/confidence intervals, and discrete LD50 values. The full data set included 21,200 LD50 entries for 15,688 substances. […] Data were reviewed to ensure that LD50 values with obvious errors in the extracted data such as unit conversion errors (e.g., comma and decimal separator misplacements) were either fixed or removed. After this review, 16,209 LD50 values remained. Many of the chemicals represented had multiple LD50 entries, requiring that a single representative value per Chemical Abstracts Service Registry Number (CASRN) identifier be defined to facilitate modeling efforts. Based on ATWG feedback and to define the representative LD50 as a protective value while accounting for the distribution across multiple LD50s, the median of the lowest quartile was computed using only discrete LD50 values (omitting limit test data and range and confidence interval data). A detailed summary of the data compilation is available online on the NICEATM webpage dedicated to the collaborative modeling project (NTP 2020).
[…][…] For categorical designations, limit test and range/confidence interval LD50 data were integrated wherever possible. As such, the number of chemicals with end point values/calls varies across the modeling end points (Table 3) based on whether chemicals had representative LD50 values and/or other data. If a chemical had both, the representative value was used to determine categorical calls rather than limit test data. Some data were useable only for certain end points and categories depending on the thresholds. For example, ranges that spanned multiple hazard categories were considered only for the binary (very toxic/nontoxic) end points and omitted from rendering a determination for hazard category assignment.
[…]The final data set comprising 11,992 chemicals was split into training and evaluation sets […], respectively. This process was performed semirandomly by ordering chemicals based on the five end points (categorical and continuous LD50 values) and partitioning every fourth record into the evaluation set accordingly. This approach was taken to ensure an equivalent distribution of the LD50 values and the different hazard categories between the training and the evaluation sets without supervised sampling of the chemicals based on structures (Figure 1A). The sources of the chemical structures were also kept equivalent between the two sets, with chemical structures obtained from DSSTox, being the highest quality, representing over 75% of each set (Figure 1B).
On to `O=C1CCc2cc(C(=O)CCCN3CCN(c4ccccc4)CC3)ccc2N1`, for which the 50% lethal dose (LD50) (in general, the dose expected to kill half of the subjects tested) is 500 mg/kg. Consider `CCc1cc(=O)c2ccccc2o1`, for which the 50% lethal dose (LD50) was 1400 mg/kg. In the case of `C#CCN(C)CCCOc1ccc(Cl)cc1Cl`, the LD50 was 210 mg/kg. On to `OCCN1CCCCC1`, for which the LD50 is 1500 mg/kg. Regarding `N#Cc1ccc2c(c1)N(CCCN1CCC(O)CC1)c1ccccc1S2`, the LD50 is 395 mg/kg.

Take `CCCCCC(C)(O)CC` (stereo not given): the LD50 was 3400 mg/kg. For `C=COCCOCCCC`, the LD50 is 3100 mg/kg.

As for `CCCCC(CC)Cc1ccccc1O` (stereo not given), the LD50 was 2460 mg/kg. For `OCCc1ccncc1`, the LD50 was 3500 mg/kg.

On to `C=CCC1(C(C)CC)C(=O)NC(=O)NC1=O` (stereo not given), for which the LD50 is 57.5 mg/kg. For the compound `O=C(O)C(S)C(S)C(=O)O` (stereo not given), the LD50 is 4000 mg/kg. Consider `CC1CCCc2ccccc21` (stereo not given), for which the LD50 is 6700 mg/kg. On to `COC(C)CC(=O)O` (stereo not given), for which the LD50 was 3030 mg/kg. On to `CNC(=O)Oc1cccc2c1OCCO2`, for which the LD50 is 126 mg/kg. For `NC(=O)c1cc([N+](=O)[O-])cc([N+](=O)[O-])c1`, the LD50 was 1250 mg/kg. Consider `O=c1[nH]c2ccccc2c(=O)n1CCCN1CCN(c2cccc(Cl)c2)CC1`, for which the LD50 is 7650 mg/kg.

For the compound `CCOC(=O)C(SP(=O)(OC)SC)c1ccccc1` (stereo not given), the LD50 was 250 mg/kg.

Consider `OP(OCCCl)OCCCl`, for which the LD50 is 260 mg/kg. `CC(C(=O)O)c1ccc2oc3ccccc3c(=O)c2c1` (stereo not given): the LD50 was 720 mg/kg. Regarding `NC(CO)(CO)CO`, the LD50 was 5900 mg/kg. `C#CC(C)(C)N`: the LD50 is 1470 mg/kg. On to `COc1cc(CC(C)N)cc2c1OCO2` (stereo not given), for which the LD50 was 170 mg/kg. Turning to `CCOC(CC(OCC)OCC)OCC`, the LD50 is 1610 mg/kg. For `O=C1NCc2ccccc2O1`, the LD50 was 1050 mg/kg. For `C=C(C)CC#N`, the LD50 is 540 mg/kg. As for `O=C(Cl)c1ccc(Cl)cc1Cl`, the LD50 was 4640 mg/kg. As for `O=c1c2ccccc2nc2n1OCC2`, the LD50 is 395 mg/kg. Regarding `ClCC(Cl)(Cl)CCl`, the 50% lethal dose (LD50) is 6300 mg/kg. As for `O=C1c2ccccc2N(C(=O)CN2CCOCC2)CN1c1ccccc1`, the LD50 is 2220 mg/kg and 2140 mg/kg. Regarding `CNC(C)Cc1ccccc1` (racemic), the LD50 was 29 mg/kg. `Oc1ccc(-c2ccccc2)cc1CN1CCOCC1`: the LD50 was 25 mg/kg. Turning to `O=C(Nc1c(Cl)c(Cl)c(Cl)c2nc(C(F)(F)F)[nH]c12)c1ccccc1`, the LD50 was 100 mg/kg. Turning to `CC(C)Nc1nc(Cl)nc(NC(C)C)n1`, the LD50 is 3840 mg/kg. For the compound `CCOC(=O)C1OC1(C)c1ccccc1` (stereo not given), the LD50 was 5470 mg/kg. In the case of `CNC(=O)Oc1cc(C(C)C)ccc1Cl`, the LD50 was 21 mg/kg. For the compound `NCC(CC(=O)O)c1ccc(Cl)cc1` (stereo not given), the LD50 is 145 mg/kg. For the compound `CCC(C(=O)OCCOCCN(CC)CC)c1ccccc1` (stereo not given), the LD50 is 4160 mg/kg.

As for `OCCOCCN1CCN(C(c2ccccc2)c2ccc(Cl)cc2)CC1` (stereo not given), the LD50 is 690 mg/kg and 950 mg/kg and 840 mg/kg. For `CN1CN(CC(=O)O)CSC1=S`, the LD50 was 1000 mg/kg. For `COc1cc(OC)nc(NC(=O)NS(=O)(=O)c2cc(NC=O)ccc2C(=O)N(C)C)n1`, the 50% lethal dose (LD50) is 3880 mg/kg. In the case of `CCCCCCCC/C=C\CCCCCCCC[N+](C)(C)CC`, the LD50 was 500 mg/kg. As for `CCc1c(Cl)ccc(O)c1Cl`, the 50% lethal dose (LD50) is 2260 mg/kg. Consider `O=C(O)c1ccccc1Nc1cccc(Cl)c1CO`, for which the LD50 is 2400 mg/kg. As for `CN1C(=CC=CC2=[N+](C)c3ccccc3C2(C)C)C(C)(C)c2ccccc21`, the LD50 is 18 mg/kg. As to `CC(C)=CC(=O)Nc1ccc(O)cc1`, the LD50 was 1950 mg/kg. As for `O=C1OCCO1`, the LD50 was 10000 mg/kg. Take `CN1C(C(=O)Nc2nccs2)=C(O)c2ccccc2S1(=O)=O`: the LD50 is 136 mg/kg.

For `COCCN1C(=O)C2C3C=C(C(O)(c4ccccc4)c4ccccn4)C(C3=C(c3ccccc3)c3ccccn3)C2C1=O` (stereo not given), the LD50 was 9 mg/kg. Take `COc1cc([C@@H]2c3cc4c(cc3C(O[C@@H]3O[C@@H]5CO[C@@H](C)O[C@H]5[C@H](O)[C@H]3O)C3COC(=O)[C@@H]32)OCO4)cc(OC)c1O` (stereo not given in full): the LD50 is 1780 mg/kg. On to `NC(=S)NC(=S)Nc1ccccc1`, for which the LD50 is 250 mg/kg. In the case of `COP(=O)(OC)Oc1ccc([N+](=O)[O-])c(Cl)c1`, the LD50 is 10 mg/kg. For the compound `C=CCOc1ccccc1C(=O)NC1CCCCC1`, the LD50 is 1200 mg/kg.

On to `NCCC=C1c2ccccc2COc2ccccc21`, for which the LD50 is 960 mg/kg.

In the case of `CCS(=O)CCOP(=S)(OC)OC` (stereo not given), the LD50 was 600 mg/kg.

For the compound `O=C(O)c1cccnc1Nc1cccc(C(F)(F)F)c1`, the LD50 was 250 mg/kg.
